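Results reflect a 48-hour exposure of cells in 96-well plates to compound at five concentrations. Abbreviation: GI50, concentration required for 50% inhibition of growth. TGI marks complete inhibition of growth.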

Among the test systems are NCI-H460 lung; TK-10 renal; BT-549 breast; SK-MEL-5 melanoma; EKVX NSCLC; LOX IMVI melanoma; SN12C renal; SF-268 CNS.
Holding throughout (assay): growth of human tumour cells (NCI), 48 h

As for `COc1cc([N+](=O)[O-])c(OC)cc1-c1nc2sc(Cl)cn2c1/C=N/NC1=NCCN1`, the GI50 was 0.322 µM in the test with NCI-H460 lung; 1.89 µM in the test on TK-10 renal; 2.69 µM in the test with BT-549 breast; 0.83 µM in the test with SK-MEL-5 melanoma; 2.33 µM in the test with EKVX NSCLC; 1.74 µM in the test on LOX IMVI melanoma. Moreover, the GI50 in the test on SN12C renal was 1.67 µM. The TGI in the test with NCI-H460 lung was above 100 µM; in the test on TK-10 renal, 3.36 µM; with BT-549 breast it was 5.95 µM; in the test on SK-MEL-5 melanoma, 2.19 µM; in the test on EKVX NSCLC, 5.64 µM; in the test with LOX IMVI melanoma, 3.25 µM. In addition, the TGI in the test on SN12C renal stood at 3.52 µM.
Consider `Cn1c(=O)c(Oc2ccc(F)cc2F)cc2cnc(NC3CCS(=O)(=O)CC3)nc21`, for which the GI50 is above 25 µM in the test with NCI-H460 lung; above 25 µM with TK-10 renal; above 25 µM in the test with BT-549 breast; above 18.9 µM in the test with SF-268 CNS; above 25 µM in the test with SK-MEL-5 melanoma; above 25 µM in the test on LOX IMVI melanoma. In addition, the GI50 in the test with SN12C renal is above 25 µM. Also, the TGI in the test with NCI-H460 lung, in the test on TK-10 renal, with BT-549 breast, in the test with SF-268 CNS, in the test with SK-MEL-5 melanoma and in the test on LOX IMVI melanoma was above 25 µM throughout. Besides, in the test on SN12C renal, the TGI was above 25 µM.
Take `Cc1ccc(Cl)c(Nc2ccccc2C(=O)O)c1Cl`: the GI50 is 25.9 µM with NCI-H460 lung; 29.2 µM with TK-10 renal; 21.7 µM in the test on BT-549 breast; 31.8 µM in the test on SF-268 CNS; 18.2 µM in the test on SK-MEL-5 melanoma; 18.7 µM with LOX IMVI melanoma. In addition, the GI50 with SN12C renal is 30.7 µM. Also, the TGI in the test on NCI-H460 lung is 69.4 µM; with TK-10 renal, 86 µM; in the test with BT-549 breast it was 60.1 µM; in the test with SF-268 CNS, above 100 µM; in the test with SK-MEL-5 melanoma it was 33.5 µM; in the test on LOX IMVI melanoma, 44.9 µM. This molecule had a TGI in the test on SN12C renal above 100 µM.
On to `OCc1ccc(N2CCc3ccccc3C2)cc1Cl`, for which the GI50 is below 0.0179 µM in the test with NCI-H460 lung; 17.7 µM in the test on BT-549 breast; 32.5 µM with SF-268 CNS; 31.6 µM in the test with LOX IMVI melanoma; 11.4 µM in the test with SN12C renal. Further, the TGI is 0.174 µM in the test on NCI-H460 lung; 40.8 µM with BT-549 breast; above 100 µM with SF-268 CNS; above 100 µM in the test with LOX IMVI melanoma; above 100 µM in the test on SN12C renal.
As for `O=C1c2cc([N+](=O)[O-])ccc2-c2ccc3c4ccc5c6c(ccc(c7ccc1c2c73)c64)C(=O)c1cc([N+](=O)[O-])ccc1-5`, the TGI in the test on TK-10 renal, in the test on BT-549 breast, with SF-268 CNS, in the test on SK-MEL-5 melanoma, with EKVX NSCLC and in the test with LOX IMVI melanoma was above 100 µM each time. Moreover, in the test with SN12C renal, the TGI is above 100 µM.
On to `CC(=O)Oc1ccc(/C(=C(\C)c2ccc(Cl)cc2)c2ccc(OCCN3CCCCC3)cc2)cc1`, for which the GI50 is 1.91 µM in the test with NCI-H460 lung; 1.83 µM in the test with BT-549 breast; 1.82 µM in the test with SF-268 CNS; 1.69 µM in the test with SK-MEL-5 melanoma; 2.15 µM in the test on EKVX NSCLC; 1.65 µM with LOX IMVI melanoma. In the test with SN12C renal, the GI50 is 1.69 µM. The TGI in the test on NCI-H460 lung turned out to be 3.66 µM; in the test with BT-549 breast it was 3.58 µM; with SF-268 CNS, 3.86 µM; with SK-MEL-5 melanoma, 3.07 µM; in the test on EKVX NSCLC it was 6.32 µM; with LOX IMVI melanoma, 3.01 µM. The molecule further gave a TGI in the test on SN12C renal of 3.52 µM.
For the molecule `Cc1ccc(NC(=O)c2sc3nc4c(cc3c2N)C(=O)CCC4)cc1C`, the GI50 in the test with NCI-H460 lung is 0.399 µM; in the test with TK-10 renal, above 70 µM; in the test with SF-268 CNS it was 4.47 µM; in the test on SK-MEL-5 melanoma it was 0.418 µM; with LOX IMVI melanoma, 0.837 µM; in the test with SN12C renal, 0.797 µM. The TGI is above 43.5 µM with NCI-H460 lung; above 100 µM in the test with TK-10 renal; above 100 µM in the test with SF-268 CNS; 21.6 µM in the test on SK-MEL-5 melanoma; above 100 µM in the test with LOX IMVI melanoma; above 100 µM in the test with SN12C renal.
`CC(=O)Nc1ccc(COC(O)CN2CCCCC2)cc1[N+](=O)[O-]` (stereo unspecified): the TGI in the test on NCI-H460 lung, in the test with TK-10 renal, in the test on BT-549 breast, in the test with SF-268 CNS, in the test on SK-MEL-5 melanoma and in the test with SN12C renal was above 100 µM each time.
`c1ccc2cc(C[n+]3ccn(CCCCCCCCCCn4cc[n+](Cc5ccc6ccccc6c5)c4)c3)ccc2c1`: the GI50 with NCI-H460 lung is 0.376 µM; in the test on TK-10 renal, 3.28 µM; in the test on SF-268 CNS it was 0.61 µM; in the test on EKVX NSCLC, 0.442 µM; with LOX IMVI melanoma, 1.21 µM. In addition, the TGI with NCI-H460 lung worked out at 10.1 µM; with TK-10 renal it was 16.9 µM; in the test with SF-268 CNS, 12.3 µM; in the test on EKVX NSCLC it was 9.07 µM; with LOX IMVI melanoma it was 3.66 µM.
As for `COc1cc(-c2cc(-c3cc(OC)c(OC)c(OC)c3)nc3nc(N)[nH]c(=O)c23)ccc1Oc1ccnc2cc(Cl)ccc12`, the GI50 was 3.45 µM in the test on NCI-H460 lung; 2.91 µM in the test on BT-549 breast; 3.43 µM with SF-268 CNS; 2.93 µM in the test with SK-MEL-5 melanoma; 1.27 µM in the test with LOX IMVI melanoma; 3.83 µM in the test with SN12C renal. The TGI with NCI-H460 lung was 37.7 µM; in the test on BT-549 breast, 20.8 µM; with SF-268 CNS, above 100 µM; in the test with SK-MEL-5 melanoma it was 13.3 µM; in the test on LOX IMVI melanoma, 19.8 µM; in the test with SN12C renal it was 41.8 µM.
Regarding `COc1ccc(/C=C/C(=O)c2ccc(OC)c(OC)c2)cc1O`, the GI50 is 3.44 µM with NCI-H460 lung; 11.4 µM in the test on TK-10 renal; 5.5 µM in the test on BT-549 breast; 8.74 µM in the test on SF-268 CNS; 5.9 µM with SK-MEL-5 melanoma; 5.69 µM with LOX IMVI melanoma. For the same molecule, in the test on SN12C renal, the GI50 was 3.74 µM. In addition, the TGI amounted to 11.8 µM in the test on NCI-H460 lung; 30.4 µM in the test with TK-10 renal; 17.4 µM with BT-549 breast; 29.1 µM with SF-268 CNS; 18.8 µM with SK-MEL-5 melanoma; 18.6 µM with LOX IMVI melanoma. This molecule yielded a TGI with SN12C renal of 15.6 µM.
For `CN(C)c1ccc(/C=C/C2=[N+](C)c3ccccc3C2(C)C)cc1`, the GI50 in the test with NCI-H460 lung is 0.746 µM; with TK-10 renal, 1.06 µM; in the test with BT-549 breast, 0.467 µM; in the test on SF-268 CNS, 0.5 µM; in the test with EKVX NSCLC, 0.508 µM; in the test on LOX IMVI melanoma, 0.339 µM. Besides, in the test on SN12C renal, the GI50 was 0.354 µM. For the same molecule, the TGI in the test with NCI-H460 lung worked out at 10.7 µM; in the test with TK-10 renal, 32.5 µM; in the test with BT-549 breast, 12.6 µM; in the test with SF-268 CNS, 18.3 µM; with EKVX NSCLC, 20 µM; in the test with LOX IMVI melanoma, 10.6 µM. The molecule also yielded a TGI with SN12C renal of 13.4 µM.

These data come from PubChem BioAssay (NCI).
